Assay results reported in patent US20250320228A1, “PYRIDO[3,2-D]PYRIMIDINES AS HPK1 INHIBITORS” (Merck Patent GmbH, priority 2022, published 2025).

Legend:
[1] = target: full-length human HPK1 (MAP4K1) (Homo sapiens (Human), UniProt Q92918); test: HPK1 kinase assay (biochemical, ADP-Glo); settings: GST-HPK1 3.2 nM, 10 μM ATP, MBP substrate, ADP-Glo; read-out: HPK1 enzymatic IC50
Description: HPK1 kinase assay (Biochemical assay).
A recombinant fusion protein consisting of full-length human HPK1 (MAP4K1) with an N-terminal Glutatione S-transferase (GST) tag was produced in insect cells Sf21 using the baculovirus expression system. GST-HPK1 protein was purified from cell lysates by glutathione Sepharose affinity chromatography. The assay is run in three continuous steps: 1) the HPK1 enzymatic kinase reaction, 2) an ATP depletion, and 3) the ADP detection, the steps 2 and 3 are performed with ADP-Glo™ Kinase Assay kit from Promega (V9101). Test compounds were prepared by 10-point serial dilution in dimethyl sulfoxide (DMSO) and 100 nL of each dilution was spotted onto a 384-well Optiplate (Perkin Elmer and Cat #6007299) by Labcyte Echo. 5 μL kinase reaction buffer (0.02% Brij-35, 2 mM DTT, 50 mM HEPES pH 7.5, MgCl2 10 mM, BSA 0.01% and β-glycerophosphate 12.5 mM) containing HPK1 (3.2 nM) enzyme was transferred to each well and incubated for 15 minutes at room temperature at 60% humidity. The enzymatic reaction was started by adding 5 μl of Start-Mix (10 μM ATP and 3.235 μM MBP). After 120 minutes, the reaction was stopped by adding 5 μL of ADP-Glo reagent (Promega, V9101) and incubating for 40 min. in the dark at 23° C. To determine the level of ADP, 10 μl ADP-Glo Detection solution was added and incubated for 1 hour at 23° C. in the dark. The plate was transferred to a Perkin Elmer EnVision (2104 Multilabel Reader) for luminescence detection and percent inhibition activity and IC50 value were determined using Genedata Screener.

[2] = tested on: HPK1 pSLP76 (Ser376); test: Cellular assay phospho-SLP-76 (Ser376); type: cell-based, human; settings: SLP76 Ser376 phosphorylation after αCD3/αCD28 stimulation; Jurkat (human) or EL-4 (mouse) cells, table does not say which; read-out: HPK1 pSLP76 IC50
Experimental: Cellular Assay—Phospho-SLP-76 (Ser376).
Inhibition of HPK1 enzymatic activity in cells was determined by detection of SLP76 phosphorylation at Ser376 residue in lysate from Jurkat (human) and EL-4 (mouse) cells. Jurkat and EL-4 cells express both HPK1 and SLP76 naturally. All cells were cultured in RPMI 1640 media containing 10% heat inactivated fetal bovine serum (FBS) and 1× Penicillin-Streptomycin. In either Jurkat or El-4 assay, cells were pre-incubated with test compounds prior to T cell stimulation by respective αCD3/αCD28 Dynabeads™. For detection, plates were read on the Envision and percent inhibition and IC50 were determined by Smart fit in Genedata Analyzer.
For Jurkat cells: 35 μL cell suspension were dispensed at a density of 30,000 cells/well in 384-well plates containing HBSS (Gibco, 14025076)+0.1% BSA). 10-point logarithmic serial dilution of test compounds in DMSO were prepared by a Hamilton automated liquid handling robot and 35 nL was transferred into each well by an Echo liquid handler. After 60 min. pre-incubation, the cells were stimulated by adding 5 μL human T activator αCD3/αCD28 Dynabeads™ (Gibco, 11132D) at 1.2×107 beads/ml for 15 minutes at 37° C. Detection of Ser376 phosphorylation status was accomplished by first adding 10 μL of 5× AlphaLISA lysis buffer (Perkin Elmer, ALSU-PSLP-A500) to each well of the cell plate using a Multidrop Combi (5840300), followed by 20 minutes shaking. 10 μL cell lysate from each treatment were then transferred to a white 384-well plate (Corning 3572) and incubated with AlphaLISA acceptor beads for one hour (AlphaLISA SureFire Ultra p-SLP76 (Ser376), Perkin Elmer, ALSU-PSLP-A500), and donor beads for additional 2 hours at room temperature in the dark. […]

Chain of full-length human HPK1 (MAP4K1) (Q92918 whole entry): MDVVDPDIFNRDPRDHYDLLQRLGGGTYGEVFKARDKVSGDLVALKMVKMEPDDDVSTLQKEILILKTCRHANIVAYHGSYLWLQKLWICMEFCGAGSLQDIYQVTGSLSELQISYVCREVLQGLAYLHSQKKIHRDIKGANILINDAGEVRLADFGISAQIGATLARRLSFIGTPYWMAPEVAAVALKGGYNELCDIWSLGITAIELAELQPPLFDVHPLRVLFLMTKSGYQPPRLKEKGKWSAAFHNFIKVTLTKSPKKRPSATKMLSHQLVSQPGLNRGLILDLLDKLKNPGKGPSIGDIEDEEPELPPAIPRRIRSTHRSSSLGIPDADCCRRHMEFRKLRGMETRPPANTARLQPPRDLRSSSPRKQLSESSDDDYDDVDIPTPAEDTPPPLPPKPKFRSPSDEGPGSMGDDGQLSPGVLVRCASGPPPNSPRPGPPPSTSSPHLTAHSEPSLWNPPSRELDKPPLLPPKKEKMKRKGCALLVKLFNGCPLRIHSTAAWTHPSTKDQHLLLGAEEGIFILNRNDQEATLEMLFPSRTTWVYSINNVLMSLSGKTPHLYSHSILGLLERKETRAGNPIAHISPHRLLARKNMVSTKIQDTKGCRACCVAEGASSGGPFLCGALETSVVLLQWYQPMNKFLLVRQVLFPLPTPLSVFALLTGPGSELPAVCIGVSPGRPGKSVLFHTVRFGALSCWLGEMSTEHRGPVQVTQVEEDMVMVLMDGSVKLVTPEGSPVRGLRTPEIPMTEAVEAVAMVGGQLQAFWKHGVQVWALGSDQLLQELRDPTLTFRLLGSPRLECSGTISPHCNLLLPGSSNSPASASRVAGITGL

Row | SMILES | IC50 [1] [nM] | IC50 [2] [nM]
1 | NC(=O)c1cc(-c2ccc(CN3C4COCC3C4)cc2)nc2c(N[C@H]3CCCNC3)ncnc12 [Example 67, 6-(4-[3-oxa-6-azabicyclo [3.1.1]heptan-6-ylmethyl]phenyl)-4-[(3S)-piperidin-3-ylamino]pyrido[3,2-d]pyrimidine-8-carboxamide] | < 100 | > 1000
2 | NC(=O)c1cc(-c2ccc(CN3CCOC[C@H]3C(F)(F)F)cc2)nc2c(N[C@H]3CCCNC3)ncnc12 [Example 15] |  | < 500
3 | N#C[C@H]1COCCN1Cc1ccc(-c2cc(C(N)=O)c3ncnc(N[C@H]4CCCNC4)c3n2)cc1 [Example 14] |  | > 1000
4 | NC(=O)c1cc(-c2cc(F)c(OCC3(O)CCC3)c(F)c2)nc2c(N[C@H]3CCCNC3)ncnc12 [Example 39, (S)-6-(3,5-difluoro-4-((1-hydroxycyclobutyl)methoxy)phenyl)-4-(piperidin-3-ylamino)pyrido[3,2-d]pyrimidine-8-carboxamide] |  | < 500
5 | CN1CC=C(c2cc(C(N)=O)c3ncnc(N[C@H]4CCCNC4)c3n2)CC1 [Example 73, 6-(1-methyl-1,2,3,6-tetrahydropyridin-4-yl)-4-{[(3S)-piperidin-3-yl]amino}pyrido[3,2-d]pyrimidine-8-carboxamide] | > 1000 | 
6 | NC(=O)c1cc(-c2ccc(CN3CCOCC3)cc2)nc2c(NC34CNCC3C4)ncnc12 (centres unmarked) [Example 20] |  | > 1000
7 | NC(=O)c1cc(-c2ccc(CN3CCOCC3)cc2)nc2c(N[C@H]3CCCCNC3)ncnc12 [Example 21] | 100 to 1000 | 
8 | NC(=O)c1cc(CC2CCOCC2)nc2c(N[C@H]3CCCNC3)ncnc12 [Example 88, 6-[(oxan-4-yl)methyl]-4-{[(3S)-piperidin-3-yl]amino}pyrido[3,2-d]pyrimidine-8-carboxamide] | > 1000 | 
9 | CN1CCc2cc(-c3cc(C(N)=O)c4ncnc(N[C@H]5CCCNC5)c4n3)nn2CC1=O [Example 45, (S)-6-(6-methyl-7-oxo-5,6,7,8-tetrahydro-4H-pyrazolo[1,5-d][1,4]diazepin-2-yl)-4-(piperidin-3-ylamino)pyrido[3,2-d]pyrimidine-8-carboxamide] |  | > 1000
10 | NC(=O)c1cc(C=C2CCOCC2)nc2c(N[C@H]3CCCNC3)ncnc12 [Example 85, 6-[(oxan-4-ylidene)methyl]-4-{[(3S)-piperidin-3-yl]amino}pyrido[3,2-d]pyrimidine-8-carboxamide] | > 1000 | 
11 | COc1ccc(-c2cc(C(N)=O)c3ncnc(N[C@@H]4CNCC(F)(F)C4)c3n2)cc1 [Example 11, (S)-4-((5,5-difluoropiperidin-3-yl)amino)-6-(4-methoxyphenyl)pyrido[3,2-d]pyrimidine-8-carboxamide] | 100 to 1000 | 
12 | NC(=O)c1cc(CC2CCOC2)nc2c(N[C@H]3CCCNC3)ncnc12 (stereo partly drawn) [Example 84, 6-[(oxolan-3-yl)methyl]-4-{[(3S)-piperidin-3-yl]amino}pyrido[3,2-d]pyrimidine-8-carboxamide] | > 1000 | 

Results, then the compound that gave them:

Row | IC50 [1] [nM] | IC50 [2] [nM] | SMILES
13 | < 100 | 500 to 1000 | C[C@@H](c1ccc(-c2cc(C(N)=O)c3ncnc(N[C@H]4CCCNC4)c3n2)cc1)N1CCOCC1 (single isomer, unassigned) [Example 53]
14 | < 100 | < 500 | NC(=O)c1cc(-c2ccc(OCCCN3CCOCC3)cc2)nc2c(N[C@H]3CCCNC3)ncnc12 [Example 52, (S)-6-(4-(3-morpholinopropoxy)phenyl)-4-(piperidin-3-ylamino)pyrido[3,2-d]pyrimidine-8-carboxamide]
15 | < 100 | 500 to 1000 | NC(=O)c1cc(-c2cnn(C3CC3)c2)nc2c(N[C@@H]3CNC[C@@H](F)C3)ncnc12 [Example 36, 6-(1-cyclopropyl-1H-pyrazol-4-yl)-4-(((3S,5S)-5-fluoropiperidin-3-yl)amino)pyrido[3,2-d]pyrimidine-8-carboxamide]
16 | < 100 | < 500 | COCCOc1ccc(-c2cc(C(N)=O)c3ncnc(N[C@@H]4CNCC[C@H]4F)c3n2)cc1 [Example 48, 4-(((3R,4R)-4-fluoropiperidin-3-yl)amino)-6-(4-(2-methoxyethoxy)phenyl)pyrido[3,2-d]pyrimidine-8-carboxamide]
17 | < 100 | < 500 | NC(=O)c1cc(-c2ccc(C3(N4CCOCC4)CC3)cc2)nc2c(N[C@H]3CCCNC3)ncnc12 [Example 28, 6-[4-[1-(morpholin-4-yl)cyclopropyl]phenyl]-4-[(3S)-piperidin-3-ylamino]pyrido [3,2-d]pyrimidine-8-carboxamide]
18 | 100 to 1000 | > 1000 | NC(=O)c1cc(-c2ccc(CN3CCOCC3)cc2)nc2c(N[C@@]3(c4ccccc4)CCCNC3)ncnc12 [Example 18]
19 | < 100 |  | NC(=O)c1cc(-c2cnn(C(F)F)c2)nc2c(N[C@H]3CCCNC3)ncnc12 [Example 77, 6-[1-(difluoromethyl)-1H-pyrazol-4-yl]-4-{[(3S)-piperidin-3-yl]amino}pyrido[3,2-d]pyrimidine-8-carboxamide]
20 | 100 to 1000 |  | NC(=O)c1cc(C=C2CCOC2)nc2c(N[C@H]3CCCNC3)ncnc12 (stereo in doubt) [Example 80, 6-{[(3Z)-oxolan-3-ylidene]methyl}-4-{[(3S)-piperidin-3-yl]amino}pyrido[3,2-d]pyrimidine-8-carboxamide]
21 | < 100 |  | CC(C)n1cc(-c2cc(C(N)=O)c3ncnc(N[C@H]4CCCNC4)c3n2)cn1 [Example 78, 4-{[(3S)-piperidin-3-yl]amino}-6-[1-(propan-2-yl)-1H-pyrazol-4-yl]pyrido[3,2-d]pyrimidine-8-carboxamide]
22 | 100 to 1000 |  | NC(=O)c1cc(-c2cccnc2C(F)(F)F)nc2c(N[C@H]3CCCNC3)ncnc12 [Example 87, 4-{[(3S)-piperidin-3-yl]amino}-6-[2-(trifluoromethyl)pyridin-3-yl]pyrido[3,2-d]pyrimidine-8-carboxamide]
23 | < 100 |  | COCCn1cc(-c2cc(C(N)=O)c3ncnc(N[C@H]4CCCNC4)c3n2)cn1 [Example 19, (S)-6-(1-(2-methoxyethyl)-1H-pyrazol-4-yl)-4-(piperidin-3-ylamino)pyrido[3,2-d]pyrimidine-8-carboxamide]
24 | < 100 |  | Cc1cc(-c2cc(C(N)=O)c3ncnc(N[C@@H]4CNC[C@@H](F)C4)c3n2)sn1 [Example 6, 4-{[(3S,5S)-5-fluoropiperidin-3-yl]amino}-6-(3-methyl-1,2-thiazol-5-yl)pyrido[3,2-d]pyrimidine-8-carboxamide]
25 | 100 to 1000 |  | N#Cc1cc(C(F)F)ccc1-c1cc(C(N)=O)c2ncnc(N[C@@H]3CNCC(F)(F)C3)c2n1 [Example 10, (S)-6-(2-cyano-4-(difluoromethyl)phenyl)-4-((5,5-difluoropiperidin-3-yl)amino)pyrido[3,2-d]pyrimidine-8-carboxamide]
26 | < 100 |  | NC(=O)c1cc(-c2ccc(CN3CC[C@H](F)C3)cc2)nc2c(N[C@H]3CCCNC3)ncnc12 [Example 60, 6-(4-[[(3S)-3-fluoropyrrolidin-1-yl]methyl]phenyl)-4-[(3S)-piperidin-3-ylamino]pyrido[3,2-d]pyrimidine-8-carboxamide]
27 | < 100 |  | N#Cc1c(-c2cc(C(N)=O)c3ncnc(N[C@@H]4CNC[C@@H](F)C4)c3n2)ccc2ncccc12 [Example 2, 6-(5-cyanoquinolin-6-yl)-4-{[(3S,5S)-5-fluoropiperidin-3-yl]amino}pyrido[3,2-d]pyrimidine-8-carboxamide]
28 | < 100 |  | NCCNc1ncnc2c(C(N)=O)cc(-c3ccc(CN4CCOCC4)cc3)nc12 [Example 23, 4-((2-aminoethyl)amino)-6-(4-(morpholinomethyl)phenyl)pyrido[3,2-d]pyrimidine-8-carboxamide]
